Assay results from US4207325A, “4-Substituted pyrazoles” (Bayer Aktiengesellschaft, priority 1975, dated 1980).

Test system: venous thrombs (left jugular vein of rats)
Experiment: antithrombotic action in rats: thromb formation in the supercooled left jugular vein, thromb isolated and weighed 4 hours later
Type: in vivo
Conditions: 10 mg/kg, administered orally
Experimental: The left jugular vein of rats weighing 170 to 180 g was exposed under ether narcosis and supercooled to -12° C. for 2 minutes to stimulate thromb formation. The thromb was isolated from the vein 4 hours later, and was weighed. The test animals were given the test preparation in tragacanth mucilage immediately before supercooling the wall of the blood vessel. As a result, the protective antithrombotic activity was tested in the first 4 hours after stimulating thromb formation.

Cc1nn(C(C)c2ccc(Cl)c(Cl)c2)c(OC(=O)c2ccc(F)cc2)c1-c1ccccc1 (stereo not drawn) [Example 1, 5-(4-Fluorobenzoyloxy)-3-methyl-phenyl-1-(α-methyl-3,4-dichlorobenzyl)-pyrazole]
Inhibition in % (reduction of thromb size) (4 hour period of action, vs control without active compound): 56%
Thromb size, mean value (4 hours, 12 experiments, control 115 ± 12 (14 experiments)): 51 ± 10 µg
